Experimental data published in patent US20050209157A1, “Short bioactive peptides and methods for their use” (priority 2001, published 2005).
Values after ≈ are worked out from the molar mass of the structure shown. Read-outs that look alike come from different tables or passages of the source. Non-standard residues stand in square brackets, D forms with d. Residues, ends and D or L forms follow the SMILES beside them. No end group written: not given here.

Columns and labels:
[1] = tested on: P. aeruginosa H374; type: cell-based, Pseudomonas aeruginosa; details: in µg/mL
[2] = tested on: S. epidermidis C621; type: cell-based, Staphylococcus epidermidis; details: Table 13; in µg/mL
[3] = tested on: Pseudomonas aeruginosa 100609; type: cell-based; details: Table 9; in µg/mL
[4] = tested on: Candida glabrata ATCC15126; test: Antimicrobial assays II, NCCLS broth microdilution MIC; type: cell-based; details: Table 13; in µg/mL
[5] = tested on: S. aureus (MRSA); type: cell-based, Staphylococcus aureus; details: Table 13, strain SAP0017; in µg/mL
[6] = tested on: E. coli UB1005; type: cell-based, Escherichia coli; details: Table 12
[7] = tested on: Candida albicans 105; type: cell-based; details: Table 13; in µg/mL
[8] = tested on: S. typhimurium 14028S; type: cell-based, Salmonella typhimurium; details: Table 12
[9] = tested on: Pseudomonas aeruginosa 105663; type: cell-based; details: Table 9; in µg/mL
[10] = tested on: Pseudomonas aeruginosa H187; type: cell-based; details: in µg/mL

Molecule	MIC P. aeruginosa H374 ([1]; Table 9)	MIC P. aeruginosa H374 ([1]; Table 12)	MIC S. epidermis C621 [2]	MIC P. aeruginosa Tb 100609 [3]	MIC C. glabrata ATCC15126 [4]	MIC S. aureus SAP0017 [5]	MIC E. coli UB1005 [6]	MIC C. albicans 105 [7]	MIC S. typhimurium 14028S [8]	MIC P. aeruginosa Tb 105663 [9]	MIC P. aeruginosa H187 ([10]; Table 9)	MIC P. aeruginosa H187 ([10]; Table 12)
FAKLLAKLAKKVL-NH2 [P124 (86)]	16	16	4	64	16	8	16 µg/mL	16	16 µg/mL	64	32	32
KWKLFKKKTKLFKKFAKKLAKKL-NH2 [P73 (49)]	8	8	4	16	128	16	8 µg/mL	32	16 µg/mL	16	16	16
CC(C)C[C@H](NC(=O)[C@H](C)NC(=O)[C@H](CC(C)C)NC(=O)[C@H](C)NC(=O)[C@H](CC(C)C)NC(=O)[C@H](CCCCN)NC(=O)[C@H](C)NC(=O)[C@H](CC(C)C)NC(=O)[C@H](CCCCN)NC(=O)[C@H](CCCCN)NC(=O)[C@H](C)NC(=O)[C@H](CC(C)C)NC(=O)[C@H](CCCCN)NC(=O)[C@H](C)NC(=O)[C@H](CC(C)C)NC(=O)[C@H](CCCCN)NC(=O)[C@H](CCCCN)NC(=O)[C@H](C)NC(=O)[C@@H](N)C(C)C)C(N)=O [P504 (155)]	8	8	4	8	64	4	4 µg/mL (≈ 2.01 µM)	64	4 µg/mL (≈ 2.01 µM)	16	8	8
CC(C)C[C@H](NC(=O)[C@H](C)NC(=O)[C@H](CCCCN)NC(=O)[C@H](CCCCN)NC(=O)[C@H](CC(C)C)NC(=O)[C@H](C)NC(=O)[C@H](CCCCN)NC(=O)[C@H](CCCCN)NC(=O)[C@H](CC(C)C)NC(=O)[C@@H](CCCCN)NC(=O)[C@@H](CCCCN)NC(=O)[C@H](CC(C)C)NC(=O)[C@H](C)NC(=O)[C@H](CCCCN)NC(=O)[C@H](CCCCN)NC(=O)[C@H](CC(C)C)NC(=O)[C@H](C)NC(=O)[C@H](CCCCN)NC(=O)[C@H](CC(C)C)NC(=O)[C@H](C)NC(=O)[C@H](CC(C)C)NC(=O)[C@H](C)NC(=O)[C@@H](N)Cc1ccccc1)C(=O)O [P37 (19)] (H-FALALKALKKAL[dK][dK]LKKALKKAL-OH; N-terminus assumed)	8	8	4	16	32	8	4 µg/mL (≈ 1.58 µM)	32	8 µg/mL (≈ 3.15 µM)	16	8	8
GIGKFLKKAKKFGKAFVKILKK-NH2 [P42 (24)]	4	4	2	8	64	16	4 µg/mL	32	8 µg/mL	8	8	8
FAKKLAKLALKLAKL-NH2 [P44 (26)]	8	8	4	8	16	8	1 µg/mL	8	4 µg/mL	16	8	8
FAKLLAKALKKLL-NH2 [P55 (35)]	8	8	2	8	8	4	4 µg/mL	16	4 µg/mL	16	8	8
FAKLLALALKKAL-NH2 [P97 (165)]	8	8	4	16	16	8	8 µg/mL	16	16 µg/mL	16	16	16
